# Laboratory results reported in patent publication US12414959B2, “Glucose infusion solution composition” (priority 2017, dated 2025).
# How the values were obtained:
# [1] = Preparation of clear sugar mixture solutions: clearness of dissolution; type: physicochemical; details: added in an amount of two times the solubility until colorless, water for injection, room temperature
# Procedure: Then, each sugar was added to 2 ml of water for injection, and stirred at room temperature until a clear solution was obtained. […] In addition, a sample was prepared by doubling the amount of sample F1, and the clearness of the solution was observed (F2).
# [2] = cited from earlier work
# [3] = Stabilizer test (sodium bisulfite, EDTA-2Na dihydrate): color, pH and osmolality over 10 days
# Procedure: First, 200 μl of sample F6 was added to 1800 μl of water for injection, and then stirred at room temperature, thereby preparing six samples, each consisting of 2 ml of a 10-fold-diluted sugar solution (samples a, a-1, b, b-1, c and c-1).
# Next, the pH of each of the six samples was measured, and then adjusted with NaOH so as to be close to in vivo plasma pH 7.4.
# A 0.1% solution of sodium bisulfite was prepared by mixing 5 mg of sodium bisulfite as stabilizer with 5 ml of water for injection, and a 0.2% solution of EDTA-2Na dihydrate was prepared by mixing 10 mg of EDTA-2Na dihydrate with 5 ml of water for injection. Then, 110 μl of each of the prepared solutions was added to some of the six 10-fold-diluted sugar solutions.
# [4] = Preliminary experiment on amino acids excluded from the test; type: physicochemical
clearness of dissolution [1],Structure (SMILES),Solubility (Colorless): Solubility until colorless [2],Solubility (Maximum): A maximum of solubility [2],suitability as stabilizer for sample F6 [3],initial osmolality variation when added [4]
clearly dissolved,"O=C[C@H](O)[C@@H](O)[C@@H](O)[C@H](O)CO [Galactose, galactose]",100 mg/mL,683 mg/mL,–,–
–,O=S([O-])O.[Na+] [sodium bisulfite],–,–,not suitable,–
not clearly dissolved,"O=C[C@H](O)[C@@H](O)[C@H](O)CO [Xylose, xylose]",50 mg/mL,100 mg/mL,–,–
–,N[C@@H](CS)C(=O)O [cysteine],–,–,–,excessively high
not clearly dissolved,"CC(=O)N[C@H]1[C@H]([C@H](O)[C@H](O)CO)OC(O)(C(=O)O)C[C@@H]1O (stereo partly drawn) [N-Acetyl neuraminic acid, N-acetylneuraminic acid]",50 mg/mL,50 mg/mL,–,–
–,N[C@@H](Cc1c[nH]c2ccccc12)C(=O)O [tryptophan],–,–,–,excessively high
clearly dissolved,"CC(=O)N[C@H]1C(O)O[C@H](CO)[C@@H](O)[C@@H]1O (stereo partly drawn) [N-Acetyl glucosamine, N-acetylglucosamine]",50 mg/mL,50 mg/mL,–,–
clearly dissolved,"O=C[C@H](O)[C@@H](O)[C@H](O)[C@H](O)CO [Glucose, glucose]",133 mg/mL,–,–,–
clearly dissolved,"C[C@H](O)[C@@H](O)[C@@H](O)[C@H](O)C=O [L-Fucose, L-fucose]",50 mg/mL,827 mg/mL,–,–
–,"O.O.O=C([O-])CN(CCN(CC(=O)O)CC(=O)O)CC(=O)[O-].[Na+].[Na+] [EDTA-2NA dihydrate, disodium edetate dihydrate]",–,–,not suitable,–
clearly dissolved,"CC(=O)N[C@H]1C(O)O[C@H](CO)[C@H](O)[C@@H]1O (stereo partly drawn) [N-Acetyl galactosamine, N-acetylgalactosamine]",50 mg/mL,100 mg/mL,–,–
